Values of other authors, collected in article PMC7664160 (ACS infectious diseases, 2020).

Test system: intracellular C. neoformans

| Compound | fungicidal activity against intraphagocytic C. neoformans |
| --- | --- |
| C[C@@H]1[C@H](O)[C@@H](C)/C=C/C=C/C=C/C=C/C=C/C=C/C=C/[C@H](O[C@@H]2O[C@H](C)[C@@H](O)[C@H](N)[C@@H]2O)C[C@@H]2O[C@](O)(C[C@@H](O)C[C@@H](O)[C@H](O)CC[C@@H](O)C[C@@H](O)CC(=O)O[C@H]1C)C[C@H](O)[C@H]2C(=O)O [amphotericin B] | neither fluconazole nor amphotericin B have fungicidal activity |
| OC(Cn1cncn1)(Cn1cncn1)c1ccc(F)cc1F [fluconazole] | neither fluconazole nor amphotericin B have fungicidal activity |
